The test system of assay [1] is singly M250V substituted HBV. Nature of the assay: HBV cell culture susceptibility (HBV-transfected HepG2 cells). The class given is cell-based, hepatitis B virus. The text has this:
The M250V substituted HBV RT in the absence of LVDr changes was constructed and tested for susceptibility to LVD, an obligate chain terminator which should not be impacted by the mechanism that could potentially affect ETV chain termination.
(§1) HepG2 human hepatoma cells (American Type Culture Collection) were maintained as described. The laboratory clone of HBV was the genotype D ayw serotype clone kindly provided by Dr. Steven Goff in the plasmid pCMV-HBV [41]. Plasmids expressing HBV RT with resistance substitutions were prepared using QuikChange® site-directed mutagenesis (Stratagene, LaJolla, CA).
(§2) HepG2 cell culture susceptibility assays were performed in cells transfected with HBV expression plasmids and cultured in the presence of a titration of antiviral compounds, as described in detail elsewhere. The levels of replicated, released HBV virions was measured at day five through immunocapture of detergent released nucleocapsids with anti-HBV core Ab and quantification of encapsidated HBV DNA [5]. Data were plotted as percent inhibition and EC50 values calculated as the drug concentration where 50% inhibition of extracellular HBV occurred.

The subject of another assay is Wildtype HBV. The description is as above. In kind it is cell-based. The conditions noted are these: Hepatitis B virus, wildtype HBV in culture, read-out: LVD EC50. The procedure:
as §1, §2

The subject of assay [2] is HBV clones with ETVr signature substitutions in a LVDr background. The conditions noted are these: cited from earlier work.
The test system of assay [3] is ETVr HBV polymerases (ETVr signature substitutions in a LVDr background). Nature of the assay: In vitro HBV polymerase assay, ETVr enzymes as a group. The class given is biochemical, hepatitis B virus. The text has this:
(§3) To provide the data in Tables 1 & 2, intracellular HBV nucleocapsids were isolated from HBV transfected HepG2 cells and used in endogenous polymerase assays (EPA), exactly as previously described in detail. Essentially, clarified, detergent and nuclease-treated HBV-transfected cell lysates were centrifugally sedimented through a 25% wt/vol sucrose cushion. Sedimented nucleocapsids were used in polymerase reactions with [33P]-labeled dNTPs and TCA-precipitable radioactivity was used as an indication of the HBV polymerase activity, as described.
(§4) In order to increase the activity of the EPA reactions, we used nucleocapsids from cells treated with phosphonoformic acid (foscarnet, PFA; Sigma) during culture. […] PFA inhibits synthesis of all HBV DNA forms and both strands of HBV DNA, but not priming, and has a cell culture EC50 of approximately 5 mM for HBV [48].
(§5) The HBV polymerase dNTP Km values were determined from similar assays where the concentration of dNTP was serially diluted from 1000 nM to 0.3 nM. All other dNTPs were used at a fixed concentration equal to the highest test dNTP concentration with one-tenth of the TTP in the form of [α^33P] TTP (3000 Ci/mmol; PerkinElmer, Boston, MA). The apparent Km values were obtained from Lineweaver-Burke plots of the data generated by GraphPad PRISM™ software version 3.0 (San Diego, CA). The Ki values were calculated using the Cheng-Prusoff equation: Ki = IC50/(1+[S]/Km). The enzyme concentration within HBV nucleocapsid preparations was found by determining the level of covalently-linked HBV DNA using quantitative real-time PCR [9] and converting to genome equivalents [1 pg double stranded HBV DNA = 3×10^5 genome equivalents [34]]. The primers were positioned near the 5′ end of minus strand DNA in an attempt to measure all enzymatically active molecules.

Assay [4] concerns the target T1, LVDr L180M + M204V HBV polymerase (Hepatitis B virus genotype D subtype ayw, UniProt P03156, L515M/M539V).
T1 construct: intracellular HBV nucleocapsids were isolated from HBV transfected HepG2 cells and used in endogenous polymerase assays; expressed in transfected cells; host or cells: HepG2 cells transfected with a mutated HBV expression plasmid
The experiment in a line: In vitro HBV polymerase assay (endogenous polymerase assay with nucleocapsids). In kind it is biochemical. The conditions noted are these: for IC50: In vitro polymerase, LVDr L180M + M204V.
Description: as §3, §4, §5

The target of another assay is T2, Wildtype HBV polymerase (Hepatitis B virus genotype D subtype ayw, UniProt P03156).
T2 construct: intracellular HBV nucleocapsids were isolated from HBV transfected HepG2 cells and used in endogenous polymerase assays; expressed in transfected cells; host or cells: HepG2 cells transfected with pCMV-HBV
T2 sequence (P03156 whole entry): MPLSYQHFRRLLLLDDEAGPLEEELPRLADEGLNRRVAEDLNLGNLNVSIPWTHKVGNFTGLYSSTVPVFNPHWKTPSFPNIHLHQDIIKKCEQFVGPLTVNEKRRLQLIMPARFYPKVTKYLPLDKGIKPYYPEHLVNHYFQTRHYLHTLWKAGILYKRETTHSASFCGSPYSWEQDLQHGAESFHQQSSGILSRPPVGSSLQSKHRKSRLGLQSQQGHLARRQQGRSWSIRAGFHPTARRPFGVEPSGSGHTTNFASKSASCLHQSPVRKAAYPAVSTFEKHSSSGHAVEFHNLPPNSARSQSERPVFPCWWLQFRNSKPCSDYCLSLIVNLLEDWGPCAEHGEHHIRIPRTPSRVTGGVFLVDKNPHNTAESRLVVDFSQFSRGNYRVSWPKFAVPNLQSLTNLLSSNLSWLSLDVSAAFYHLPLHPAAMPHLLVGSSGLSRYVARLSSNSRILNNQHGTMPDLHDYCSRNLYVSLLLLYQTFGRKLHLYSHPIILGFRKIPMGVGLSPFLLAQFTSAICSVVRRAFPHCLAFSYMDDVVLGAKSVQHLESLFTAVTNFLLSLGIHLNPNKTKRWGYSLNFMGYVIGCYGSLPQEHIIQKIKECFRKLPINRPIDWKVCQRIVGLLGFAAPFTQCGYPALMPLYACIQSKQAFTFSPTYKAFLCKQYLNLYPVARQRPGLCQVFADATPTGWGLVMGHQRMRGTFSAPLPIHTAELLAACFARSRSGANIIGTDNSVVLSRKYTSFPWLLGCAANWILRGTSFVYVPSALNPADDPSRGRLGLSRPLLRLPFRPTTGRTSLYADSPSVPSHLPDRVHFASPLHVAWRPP
The assay is described as above. In kind it is biochemical.
Description: as §3, §4, §5

Assay [5] concerns the target T3, LVDr + T184L HBV polymerase (Hepatitis B virus genotype D subtype ayw, UniProt P03156, L515M/M539V/T519L).
T3 construct: intracellular HBV nucleocapsids were isolated from HBV transfected HepG2 cells and used in endogenous polymerase assays; expressed in transfected cells; host or cells: HepG2 cells transfected with a mutated HBV expression plasmid
The assay is described as above. In kind it is biochemical.
Description: as §3, §4, §5

For assay [6], the target named is T4, LVDr + S202G HBV polymerase (Hepatitis B virus genotype D subtype ayw, UniProt P03156, L515M/M539V/S537G).
T4 construct: intracellular HBV nucleocapsids were isolated from HBV transfected HepG2 cells and used in endogenous polymerase assays; expressed in transfected cells; host or cells: HepG2 cells transfected with a mutated HBV expression plasmid
T4 sequence (P03156 whole entry L515M/S537G/M539V): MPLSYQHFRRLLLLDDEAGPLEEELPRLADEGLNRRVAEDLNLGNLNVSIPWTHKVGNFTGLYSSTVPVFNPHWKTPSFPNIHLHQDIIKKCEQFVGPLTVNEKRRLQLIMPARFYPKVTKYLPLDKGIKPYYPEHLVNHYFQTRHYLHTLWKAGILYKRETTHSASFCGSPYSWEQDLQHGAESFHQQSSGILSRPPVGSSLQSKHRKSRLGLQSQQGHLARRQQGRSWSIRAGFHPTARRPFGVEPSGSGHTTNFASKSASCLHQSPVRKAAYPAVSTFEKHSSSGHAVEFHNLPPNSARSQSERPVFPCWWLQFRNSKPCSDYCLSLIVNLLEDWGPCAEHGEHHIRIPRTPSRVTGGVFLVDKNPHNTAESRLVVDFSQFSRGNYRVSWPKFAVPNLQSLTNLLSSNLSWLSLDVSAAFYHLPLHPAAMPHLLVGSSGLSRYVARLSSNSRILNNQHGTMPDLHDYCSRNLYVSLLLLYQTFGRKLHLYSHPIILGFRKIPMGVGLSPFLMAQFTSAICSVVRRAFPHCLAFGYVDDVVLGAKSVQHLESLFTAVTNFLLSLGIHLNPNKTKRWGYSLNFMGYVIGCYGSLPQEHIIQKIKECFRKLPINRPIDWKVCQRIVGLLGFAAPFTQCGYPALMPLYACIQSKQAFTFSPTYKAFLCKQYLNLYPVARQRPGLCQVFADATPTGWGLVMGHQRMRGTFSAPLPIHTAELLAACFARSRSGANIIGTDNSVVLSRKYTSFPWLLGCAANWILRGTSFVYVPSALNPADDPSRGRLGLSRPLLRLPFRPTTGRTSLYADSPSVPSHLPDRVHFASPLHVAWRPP
The description is as above. The class given is biochemical. The note with it: for IC50: In vitro polymerase.
Description: as §3, §4, §5

Assay [7] concerns the target T5, LVDr + T184G + S202I HBV polymerase (Hepatitis B virus genotype D subtype ayw, UniProt P03156, L515M/M539V/S537I/T519G).
T5 construct: intracellular HBV nucleocapsids were isolated from HBV transfected HepG2 cells and used in endogenous polymerase assays; expressed in transfected cells; host or cells: HepG2 cells transfected with an HBV expression plasmid
The assay is described as above. In kind it is biochemical. The note with it: for IC50: In vitro polymerase.
Description: as §3, §4, §5

The target in assay [8] is T6, LVDr + M250V HBV polymerase (Hepatitis B virus genotype D subtype ayw, UniProt P03156, L515M/M539V/M585V).
T6 construct: intracellular HBV nucleocapsids were isolated from HBV transfected HepG2 cells and used in endogenous polymerase assays; expressed in transfected cells; host or cells: HepG2 cells transfected with a mutated HBV expression plasmid
T6 sequence (P03156 whole entry L515M/M539V/M585V): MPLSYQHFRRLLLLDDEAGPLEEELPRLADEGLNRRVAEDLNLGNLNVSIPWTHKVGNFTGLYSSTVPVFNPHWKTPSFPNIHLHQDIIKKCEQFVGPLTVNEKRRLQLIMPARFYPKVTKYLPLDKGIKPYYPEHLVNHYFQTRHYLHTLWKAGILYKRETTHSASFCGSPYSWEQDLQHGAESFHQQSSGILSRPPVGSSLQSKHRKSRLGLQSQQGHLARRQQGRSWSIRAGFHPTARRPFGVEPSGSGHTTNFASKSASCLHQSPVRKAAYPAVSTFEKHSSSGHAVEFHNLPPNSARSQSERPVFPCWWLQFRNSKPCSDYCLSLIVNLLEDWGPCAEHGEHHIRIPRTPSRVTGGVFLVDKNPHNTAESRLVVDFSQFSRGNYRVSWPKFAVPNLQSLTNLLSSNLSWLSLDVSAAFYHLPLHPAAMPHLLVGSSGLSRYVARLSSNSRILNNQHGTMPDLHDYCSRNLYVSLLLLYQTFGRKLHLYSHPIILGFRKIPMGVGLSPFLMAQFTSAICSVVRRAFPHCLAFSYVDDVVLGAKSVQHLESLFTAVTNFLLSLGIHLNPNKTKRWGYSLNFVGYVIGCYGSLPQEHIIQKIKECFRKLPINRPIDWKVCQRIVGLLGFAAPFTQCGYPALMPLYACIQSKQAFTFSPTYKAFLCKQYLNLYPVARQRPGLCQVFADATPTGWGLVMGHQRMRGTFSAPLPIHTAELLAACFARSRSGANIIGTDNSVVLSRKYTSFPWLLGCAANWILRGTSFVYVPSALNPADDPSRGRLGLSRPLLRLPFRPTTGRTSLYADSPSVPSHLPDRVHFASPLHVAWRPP
Described as above. The class given is biochemical. The note with it: for IC50: In vitro polymerase.
Description: as §3, §4, §5

Another assay relates to HBV. Details: method as in PMID 7601429. The conditions noted are these: read-out: cell culture EC50; cited from earlier work.
Setting [9] is: fold change from wildtype value, Wildtype (WT).
Where [10] appears, read: fold change from wildtype value, LVDr + T184L.
Where [11] appears, read: fold change from wildtype value, LVDr + S202G.
The mark [12] stands for this setting: fold change from wildtype value, LVDr + M250V.
[13] abbreviates: fold change from wildtype value, LVDr M204V+L180M.
The mark [14] stands for this setting: fold change from wildtype value, LVDr + T184G + S202I.

The values that follow come from PMC2820545, “Mechanistic Characterization and Molecular Modeling of Hepatitis B Virus Polymerase Resistance to Entecavir” (PLoS ONE, 2010).

Where “and” joins values, the source holds several entries; their conditions need not be identical. Equal entries are not always repeated. Where two headings read alike, the source gives them in different places.

T1 sequence (P03156 whole entry L515M/M539V): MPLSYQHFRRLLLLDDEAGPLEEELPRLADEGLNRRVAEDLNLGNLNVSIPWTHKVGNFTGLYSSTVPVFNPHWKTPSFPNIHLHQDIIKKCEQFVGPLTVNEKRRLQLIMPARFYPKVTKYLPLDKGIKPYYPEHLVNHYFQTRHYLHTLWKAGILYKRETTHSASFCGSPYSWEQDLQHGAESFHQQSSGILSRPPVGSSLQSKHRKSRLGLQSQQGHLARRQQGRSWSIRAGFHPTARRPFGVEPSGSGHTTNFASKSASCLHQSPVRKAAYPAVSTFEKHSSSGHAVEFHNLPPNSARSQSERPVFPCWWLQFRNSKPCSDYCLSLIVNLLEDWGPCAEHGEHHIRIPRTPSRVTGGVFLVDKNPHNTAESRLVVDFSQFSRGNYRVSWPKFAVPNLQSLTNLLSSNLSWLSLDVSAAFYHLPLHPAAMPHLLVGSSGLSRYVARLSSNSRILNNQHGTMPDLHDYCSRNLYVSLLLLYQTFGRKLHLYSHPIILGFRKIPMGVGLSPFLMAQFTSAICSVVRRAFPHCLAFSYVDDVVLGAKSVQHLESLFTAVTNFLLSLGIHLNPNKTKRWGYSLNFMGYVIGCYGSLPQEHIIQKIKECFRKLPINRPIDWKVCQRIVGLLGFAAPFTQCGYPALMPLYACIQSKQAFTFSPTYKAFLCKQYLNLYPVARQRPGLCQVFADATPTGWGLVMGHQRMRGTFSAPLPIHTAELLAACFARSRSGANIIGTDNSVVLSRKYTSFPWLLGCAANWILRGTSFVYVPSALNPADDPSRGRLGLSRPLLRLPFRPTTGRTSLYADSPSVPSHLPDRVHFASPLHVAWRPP
T5 sequence (P03156 whole entry L515M/T519G/S537I/M539V): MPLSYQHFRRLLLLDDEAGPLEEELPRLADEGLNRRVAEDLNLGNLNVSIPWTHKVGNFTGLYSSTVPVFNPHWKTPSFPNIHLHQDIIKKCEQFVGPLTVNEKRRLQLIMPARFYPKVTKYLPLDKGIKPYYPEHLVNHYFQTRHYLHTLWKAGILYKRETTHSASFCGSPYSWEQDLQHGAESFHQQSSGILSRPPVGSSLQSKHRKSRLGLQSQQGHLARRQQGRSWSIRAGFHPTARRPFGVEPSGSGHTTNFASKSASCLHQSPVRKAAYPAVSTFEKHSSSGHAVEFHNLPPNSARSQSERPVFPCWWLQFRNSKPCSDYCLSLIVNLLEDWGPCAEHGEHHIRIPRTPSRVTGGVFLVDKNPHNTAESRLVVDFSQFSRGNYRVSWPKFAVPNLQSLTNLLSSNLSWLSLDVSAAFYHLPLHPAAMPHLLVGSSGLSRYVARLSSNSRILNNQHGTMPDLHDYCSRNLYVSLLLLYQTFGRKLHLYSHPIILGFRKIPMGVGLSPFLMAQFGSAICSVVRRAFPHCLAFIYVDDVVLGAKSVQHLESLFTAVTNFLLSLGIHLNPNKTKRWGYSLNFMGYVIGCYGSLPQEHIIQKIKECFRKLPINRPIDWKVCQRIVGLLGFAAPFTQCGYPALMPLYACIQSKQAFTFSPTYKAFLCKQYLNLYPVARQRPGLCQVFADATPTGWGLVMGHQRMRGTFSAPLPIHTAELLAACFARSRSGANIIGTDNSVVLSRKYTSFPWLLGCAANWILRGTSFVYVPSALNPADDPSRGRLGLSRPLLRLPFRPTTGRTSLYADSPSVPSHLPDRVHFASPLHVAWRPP
T3 sequence (P03156 whole entry L515M/T519L/M539V): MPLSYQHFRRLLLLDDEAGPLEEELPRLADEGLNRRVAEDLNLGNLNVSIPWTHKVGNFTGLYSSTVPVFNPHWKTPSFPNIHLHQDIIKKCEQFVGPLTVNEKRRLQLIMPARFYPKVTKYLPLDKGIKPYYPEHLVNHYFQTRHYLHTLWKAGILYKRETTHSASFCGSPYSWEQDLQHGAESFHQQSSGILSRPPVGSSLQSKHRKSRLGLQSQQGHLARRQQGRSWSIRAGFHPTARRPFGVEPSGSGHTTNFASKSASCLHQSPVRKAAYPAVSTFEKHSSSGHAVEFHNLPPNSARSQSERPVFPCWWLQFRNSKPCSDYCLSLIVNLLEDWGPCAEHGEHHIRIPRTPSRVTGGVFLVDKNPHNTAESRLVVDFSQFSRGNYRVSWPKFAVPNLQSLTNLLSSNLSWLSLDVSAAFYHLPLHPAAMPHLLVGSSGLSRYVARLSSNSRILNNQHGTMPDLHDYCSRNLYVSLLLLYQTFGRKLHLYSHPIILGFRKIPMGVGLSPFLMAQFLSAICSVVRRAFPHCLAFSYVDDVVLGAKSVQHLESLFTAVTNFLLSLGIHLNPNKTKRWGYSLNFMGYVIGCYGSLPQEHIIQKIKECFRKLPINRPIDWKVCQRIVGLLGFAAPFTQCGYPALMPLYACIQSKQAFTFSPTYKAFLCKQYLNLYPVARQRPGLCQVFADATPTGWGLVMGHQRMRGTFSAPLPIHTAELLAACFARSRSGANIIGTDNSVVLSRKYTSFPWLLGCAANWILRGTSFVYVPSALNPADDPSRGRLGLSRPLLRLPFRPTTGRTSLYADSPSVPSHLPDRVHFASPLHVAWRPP

One may read the EC50 as the concentration at which the effect is half-maximal. As to `Nc1ccn([C@@H]2CS[C@H](CO)O2)c(=O)n1` [LVD, lamivudine], the EC50 in [1] (Hepatitis B virus, HepG2, M250V HBV (no LVDr changes) in culture, read-out: LVD EC50) was found to be 116 nM; in the assay with Wildtype HBV, 794 nM. Besides, in assay [1] ({}), the “hypersensitivity to LVD in culture” value came out at 7 fold.
Consider `Nc1ncnc2c1ncn2CCOCP(=O)(O)O` [adefovir], for which the “susceptibility of ETVr HBV in cell culture” value in assay [2] was “does not show reduced susceptibility”.
In general, Km refers to the substrate concentration at which the rate is half of its maximum. With `Nc1nc2c(ncn2[C@H]2C[C@H](O)[C@@H](COP(=O)(O)OP(=O)(O)OP(=O)(O)O)O2)c(=O)[nH]1` [dGTP], the “change of dGTP Km by ETVr changes” value in assay [3] (ETVr enzymes except the quadruple-substituted RT) is 2.2- to 2.6 fold. The Km in assay [4] (apparent Km, LVDr M204V+L180M polymerase, read-out: dGTP Km) came to 3.5 ± 0.4 nM; at Wildtype HBV polymerase (apparent Km, Wildtype (WT) polymerase, read-out: dGTP Km), 5 ± 0.5 nM; in [5] (apparent Km, LVDr + T184L polymerase, read-out: dGTP Km), 1.9 ± 0.6 nM; in assay [6] (apparent Km, LVDr + S202G polymerase, read-out: dGTP Km), 2.1 ± 0.1 nM; in assay [7] (apparent Km, LVDr + T184G + S202I polymerase, read-out: dGTP Km) it was 0.7 ± 0.1 nM; in assay [8] (apparent Km, LVDr + M250V polymerase, read-out: dGTP Km), 2.3 ± 0.5 nM. Besides, the “dGTP Km (Fold WT)” value at Wildtype HBV polymerase (setting [9]) was found to be 1 fold; in assay [5] (setting [10]), 2.6 fold; in assay [6] (setting [11]) it was 2.4 fold; in assay [8] (setting [12]), 2.2 fold.
In general, IC50 refers to the midpoint of a concentration-inhibition curve. As a reminder, the Ki is a dissociation constant, usually derived from enzyme kinetics or from competition with a known ligand. Take `C=C1[C@H](COP(=O)(O)OP(=O)(O)OP(=O)(O)O)[C@@H](O)C[C@@H]1n1cnc2c(=O)[nH]c(N)nc21` [ETV-TP, ETV-triphosphate]: the “Ki/dGTP Km ratio, change from the wildtype” value in [3] (ETVr enzymes) is “more than 600 fold”. The “level of ETVr in vitro” value in [3] (ETVr signature substitutions in a LVDr background, in vitro polymerase) is above 400 fold. Also, the Ki/Km in assay [4] (ETV-TP Ki / dGTP Km ratio, LVDr M204V+L180M) is listed as 3.5; in assay [5] (ETV-TP Ki / dGTP Km ratio, LVDr + T184L) it was 118.2; in [6] (ETV-TP Ki / dGTP Km ratio, LVDr + S202G), 69.9; in [7] (ETV-TP Ki / dGTP Km ratio, LVDr + T184G + S202I), 221.6; in [8] (ETV-TP Ki / dGTP Km ratio, LVDr + M250V), 52.7. For the same molecule, the IC50 in assay [4] (read-out: ETV-TP IC50, Average ± SD (Range)) is 27.1 ± 5.6 nM; at Wildtype HBV polymerase (In vitro polymerase, Wildtype, read-out: ETV-TP IC50, Average ± SD (Range)) it was 0.5 ± 0.1 nM; in [5] (In vitro polymerase, LVDr + T184L, read-out: ETV-TP IC50, Average ± SD (Range)), 373 ± 143 nM; in [6] (LVDr + S202G, read-out: ETV-TP IC50, Average ± SD (Range)), 258 ± 25.5 nM; in assay [7] (LVDr + T184G + S202I, read-out: ETV-TP IC50, Average ± SD (Range)) it was 636 ± 19 nM; in [8] (LVDr + M250V, read-out: ETV-TP IC50, Average ± SD (Range)) it was 229 ± 49.5 nM. Further, the Ki in [4] (calculated with Cheng-Prusoff equation, LVDr M204V+L180M polymerase, read-out: Ki (ETV-TP)) is 12.3 nM; on Wildtype HBV polymerase (calculated with Cheng-Prusoff equation, Wildtype (WT) polymerase, read-out: Ki (ETV-TP)), 0.4 nM; in assay [5] (calculated with Cheng-Prusoff equation, LVDr + T184L polymerase, read-out: Ki (ETV-TP)), 224 nM; in assay [6] (calculated with Cheng-Prusoff equation, LVDr + S202G polymerase, read-out: Ki (ETV-TP)), 147 nM; in assay [7] (calculated with Cheng-Prusoff equation, LVDr + T184G + S202I polymerase, read-out: Ki (ETV-TP)), 155 nM; in [8] (calculated with Cheng-Prusoff equation, LVDr + M250V polymerase, read-out: Ki (ETV-TP)), 121 nM. The “Ki (Fold WT)” value was 30 fold and 30.8 fold in assay [4] (setting [13]); 1 fold at Wildtype HBV polymerase (setting [9]); 561.3 fold in assay [5] (setting [10]); 366.8 fold in assay [6] (setting [11]); 387.8 fold in assay [7] (setting [14]); 303.0 fold in [8] (setting [12]). For the same molecule, the “Ki/Km (Fold WT)” value in assay [4] (setting [13]) was 43.8 fold; on Wildtype HBV polymerase (setting [9]), 1 fold; in assay [5] (setting [10]), 1477.5 fold; in assay [6] (setting [11]) it was 873.8 fold; in assay [7] (setting [14]), 2770.0 fold; in assay [8] (setting [12]), 658.8 fold.
Turning to `O=C(O)P(=O)(O)O` [PFA, phosphonoformic acid], the EC50 in the assay on HBV was around 5 mM.
As to `C[C@H](Cn1cnc2c(N)ncnc21)OCP(=O)(O)O` [tenofovir], the “susceptibility of ETVr HBV in cell culture” value in [2] is listed as “does not show reduced susceptibility”.
On to `Nc1nc2c(ncn2[C@H]2CC[C@@H](COP(=O)(O)OP(=O)(O)OP(=O)(O)O)O2)c(=O)[nH]1` [ddGTP, 2′,3′-dideoxyguanosine-5′-triphosphate], for which the “ddGTP IC50 of ETVr isolates relative to background” value in [3] (ETVr isolates, in vitro polymerase) is recorded as “approximately two-fold above background”. The half-inhibitory concentration (IC50) in assay [4] (read-out: ddGTP IC50, Average ± SD (Range)) amounted to 138 ± 10 nM; at Wildtype HBV polymerase, 87.6 nM; in assay [6] (LVDr + S202G, read-out: ddGTP IC50, Average ± SD (Range)), 125 ± 8.8 nM; in [7] (LVDr + T184G + S202I, read-out: ddGTP IC50, Average ± SD (Range)) it was 188 ± 6.7 nM; in [8] (LVDr + M250V, read-out: ddGTP IC50, Average ± SD (Range)), 154 ± 51.4 nM.
